Experimental data published in the supplement of paper PMC9663587.

Assays:
BT549 = assay: GRmax, 72 h; higher = less effect;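 also: breast cell lines in 384-well plates, nine doses across a 10^4 range, Dye Drop imaging of viable cells vs DMSO and time-zero plates, GR 0 means no net growth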
CAL851 = assay: GRmax, 72 h; higher = less effect;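 also: breast cell lines in 384-well plates, nine doses across a 10^4 range, Dye Drop imaging of viable cells vs DMSO and time-zero plates, GR 0 means no net growth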
EVSAT = assay: GRmax, 72 h; higher = less effect;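 also: breast cell lines in 384-well plates, nine doses across a 10^4 range, Dye Drop imaging of viable cells vs DMSO and time-zero plates, GR 0 means no net growth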
HCC1419 = assay: GRmax, 72 h; higher = less effect;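 also: breast cell lines in 384-well plates, nine doses across a 10^4 range, Dye Drop imaging of viable cells vs DMSO and time-zero plates, GR 0 means no net growth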
HCC38 = assay: GRmax, 72 h; higher = less effect
MDAMB175VII [1] = assay: GRmax, 72 h; higher = less effect
MDAMB436 = assay: GRmax, 72 h; higher = less effect
PDX1258 = assay: GRmax, 72 h; higher = less effect
SUM190PT = assay: GRmax, 72 h; higher = less effect
HCC1395 = assay: area over the GR curve, 72 h; higher = more effect;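 also: Dye Drop or Deep Dye Drop imaging of viable cells in 384-well plates (Hoechst nuclei, LIVE/DEAD dye), nine half-log doses, GR normalized to DMSO controls and time-zero plates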
MCF12A = assay: area over the GR curve, 72 h; higher = more effect;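 also: Dye Drop or Deep Dye Drop imaging of viable cells in 384-well plates (Hoechst nuclei, LIVE/DEAD dye), nine half-log doses, GR normalized to DMSO controls and time-zero plates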
MDAMB175VII [2] = assay: area over the GR curve, 72 h; higher = more effect;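 also: Dye Drop or Deep Dye Drop imaging of viable cells in 384-well plates (Hoechst nuclei, LIVE/DEAD dye), nine half-log doses, GR normalized to DMSO controls and time-zero plates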

Row | SMILES | GRmax, 72 h (BT549) [GR] | GRmax, 72 h (CAL851) [GR] | GRmax, 72 h (EVSAT) [GR] | GRmax, 72 h (HCC1419) [GR] | GRmax, 72 h (HCC38) [GR] | GRmax, 72 h (MDAMB175VII [1]) [GR] | GRmax, 72 h (MDAMB436) [GR] | GRmax, 72 h (PDX1258) [GR] | GRmax, 72 h (SUM190PT) [GR] | area over the GR curve (HCC1395) [GR] | area over the GR curve (MCF12A) [GR] | area over the GR curve (MDAMB175VII [2]) [GR]
1 | CC(C)NC[C@@H](C(=O)N1CCN(c2ncnc3c2[C@H](C)C[C@H]3O)CC1)c1ccc(Cl)cc1 [Ipatasertib/GDC0068] (max 10 µM) | 0.496 | 0.471 | -0.311 | 0.505 | 0.706 | -0.5 | 0.611 | 0.399 | 0.525 | 0.278 | 0.0679 | 0.456
2 | C=CC(=O)Nc1ccc(C(=O)Nc2[nH]nc3c2CN(C(=O)N[C@H](CN(C)C)c2ccccc2)C3(C)C)cc1 [YKL-5-124] (max 10 µM) | -0.58 | -0.592 | -0.401 | -0.411 | -0.39 | -0.771 | -0.0111 | -0.587 | -0.39 | 0.874 | 0.803 | 0.989
3 | CCc1cnn2c(NCc3ccc[n+]([O-])c3)cc(N3CCCC[C@H]3CCO)nc12 (max 1 µM) | -0.292 | -0.241 | 0.0834 | -0.476 | -0.442 | -0.493 | -0.144 | -0.617 | -0.659 | 0.644 | 0.424 | 0.607
4 | CC(=O)c1c(C)c2cnc(Nc3ccc(N4CCN(CCOCCOCCOCCNC(=O)COc5cccc6c5C(=O)N(C5CCC(=O)NC5=O)C6=O)CC4)cn3)nc2n(C2CCCC2)c1=O (stereo unspecified) [BSJ-03-123] (max 10 µM) | 0.0183 | -0.208 | 0.0652 | 0.165 | -0.0999 | 0.0607 | -0.0126 | -0.415 | -0.279 | 0.323 | 0.136 | 0.446
5 | CN(C)C/C=C/C(=O)Nc1ccc(O[C@@H]2CCC[C@@H](Nc3ncc(Cl)c(-c4c[nH]c5ccccc45)n3)C2)cc1 [BSJ-01-175] (max 10 µM) | -0.593 | -0.535 | -0.512 | -0.601 | -0.564 | -0.798 | -0.598 | -0.914 | -0.545 | 1.01 | 0.146 | 1.21
6 | Nc1ccc(-c2ccc3ncc4ccc(=O)n(-c5cccc(C(F)(F)F)c5)c4c3c2)cn1 [Torin2] (max 1 µM) | -0.0209 | -0.154 | -0.334 | -0.372 | -0.211 | -0.945 | 0.123 | -0.207 | -0.391 | 0.441 | 0.327 | 1.04
7 | CC[C@@H]1C(=O)N(C)c2cnc(Nc3ccc(C(=O)N[C@H]4CC[C@H](N5CCN(CC6CC6)CC5)CC4)cc3OC)nc2N1C(C)C [Volasertib/BI6727] (max 1 µM) | -0.229 | -0.289 | -0.375 | 0.0685 | -0.26 | -0.115 | -0.179 | -0.232 | -0.309 | 0.759 | 0.321 | 0.449
8 | O=C1NC(=O)[C@@H](c2cn3c4c(cccc24)CCC3)[C@@H]1c1c[nH]c2ccccc12 [Tivantinib/ARQ197] (max 10 µM) | -0.265 | -0.326 | -0.336 | 0.163 | -0.27 | -0.296 | -0.271 | -0.209 | -0.138 | 0.372 | 0.374 | 0.531
9 | CN1CC[C@H](c2c(O)cc(O)c3c(=O)cc(-c4ccccc4Cl)oc23)[C@H](O)C1 [Flavopiridol] (max 1 µM) | -0.44 | -0.223 | -0.514 | -0.263 | -0.448 | -0.309 | -0.0264 | -0.507 | -0.324 | 0.339 | 0.167 | 0.413
10 | Cc1nc(Nc2ncc(C(=O)Nc3c(C)cccc3Cl)s2)cc(N2CCN(CCO)CC2)n1 [Dasatinib] (max 10 µM) | 0.37 | -0.244 | 0.171 | -0.196 | 0.332 | -0.714 | 0.653 | -0.134 | 0.423 | 0.598 | 0.42 | 0.972
11 | Cc1nc(-c2cn3c(n2)-c2ccc(-c4cnn(C(C)(C)C(N)=O)c4)cc2OCC3)n(C(C)C)n1 [Taselisib/GDC0032] (max 10 µM) | 0.095 | -0.0171 | -0.535 | -0.405 | 0.0628 | -0.937 | 0.243 | 0.106 | -0.253 | 0.208 | 0.263 | 1.32
12 | Cc1nc(NC(=O)N2CCC[C@H]2C(N)=O)sc1-c1ccnc(C(C)(C)C(F)(F)F)c1 [Alpelisib/BYL719] (max 10 µM) | 0.684 | 0.293 | 0.716 | -0.002 | 0.68 | -0.697 | 0.725 | 0.631 | 0.532 | 0.023 | 0.0144 | 0.563
13 | COc1cc(N2CCN(C)CC2)ccc1Nc1ncc2c(n1)N(C)c1ccccc1C(=O)N2CC(F)(F)F [FMF-03-146-1] | 0.839 | 0.916 | 0.994 | 0.805 | 0.9 | 0.887 | 0.89 | 1.2 | 0.886 | 0.163 | 0.0258 | 0.0733
